We go through 18 compounds from patent US20260297094A1, “Tetracyclic Compounds as SMARCA2 and/or SMARCA4 Degraders” (Aurigene Oncology Limited, priority 2023, published 2026).

The structures appear in SMILES notation. Where a name gives a salt, the structure may show the parent alone. Bounds are passed on as bounds.

One experiment deals with SK-MEL-5 cells. Description: Anti proliferative activity in SK-MEL-5 cells by Cell Titer Glo (Promega) assay. It is filed as cell-based. The note with it: retreatment on Day 4, terminated on day 8, CellTiter-Glo. Here is the method:
Example-P1: Determination of Anti Proliferative Activity of Compounds in Cell Lines SK-MEL-5 by Cell Titer Glo® (Promega) Assay
Cells were seeded into 96-well plates and the plate was incubated in 37 degrees incubator overnight. The next day, compounds were diluted 3-fold to cover 9-point concentration range in DMSO. Intermediate plate dilution was prepared in media followed with compound treatment in cells. Retreatment of cells with compound dilutions was performed on Day 4 and assay was terminated on day 8 for SK-MEL-5 cells using CellTiter-Glo and the plate was kept on orbital shaker for 20 minutes at RT. Assay was terminated on day 6 for RERF-LC-A1 without a compound retreatment. Luminescence signal was recorded on VICTOR^3 instrument. Percent inhibition of proliferation was calculated at each concentration and plotted against the compound concentration. EC50 value was calculated using GraphPad® software.

A further experiment relates to MV-4-11 cells. The experiment in a line: Anti proliferative activity in MV-4-11 cells by Cell Titer Glo (Promega) assay. The note with it: 3 days, CellTiter-Glo. The format is cell-based. The procedure:
Example-P2: Determination of Anti Proliferative Activity of Compounds in Cell Lines MV-4-11 by Cell Titer Glo® (Promega) Assay
MV-4-11 (CRL-9591™) cells were seeded in 96 well plate flat black clear bottom plates (Corning, Cat. No 3904) using complete DMEM Medium. Next day, selected compounds of the present invention were added to cells from 10 mM stocks made in DMSO (Sigma Cat no. D2650). Each concentration of compound was tested in triplicate with DMSO concentration at a final percentage not exceeding 0.3 in the cells. After the incubation of MV-4-11 cells with compound for 3 days; assay was terminated using 100 μl of CellTiter Glo® reagent (Promega, Cat. no G7572). CellTiter-Glo® Luminescent reagent determines the number of viable cells based on quantitation of ATP present which is an indicator of cell number and metabolic activity. Luminescence readings were taken in Victor-5 instrument. Percent inhibition of proliferation was calculated using formula, % inhibition=100−(luminescence value of test/luminescence value of DMSO control)*100. DMSO control (0%)=Cells in complete media with DMSO; blank=Media alone containing DMSO. EC50 was calculated using graph pad prism software.

On to `COc1cccc2c1c(=O)nc1n(C3CCCC3)c3cc(N4CCC(N5CCC(c6ccc(NC7CCC(=O)NC7=O)cc6F)CC5)CC4)ccc3n21` (stereo not drawn) [Compound 11, 3-((4-(1′-(7-cyclopentyl-4-methoxy-5-oxo-5,7-dihydrobenzo[4,5]imidazo[1,2-a]quinazolin-9-yl)-[1,4′-bipiperidin]-4-yl)-3-fluorophenyl)amino)piperidine-2,6-dione], for which the half-maximal effective concentration (EC50) was greater than 100 nM with SK-MEL-5 cells (Homo sapiens) and greater than 100 nM with MV-4-11 cells (Homo sapiens, MV4-11, 72 h).

On to `Cn1c2cc(N3CCN(CC4CCN(c5ccc6c(c5)CN(C5CCC(=O)NC5=O)C6=O)CC4)CC3)ccc2n2c3cccc(N)c3c(=O)nc12` (stereo not drawn) [Compound 43, 3-(5-(4-((4-(4-amino-7-methyl-5-oxo-5,7-dihydrobenzo[4,5]imidazo[1,2-a]quinazolin-9-yl)piperazin-1-yl)methyl)piperidin-1-yl)-1-oxoisoindolin-2-yl)piperidine-2,6-dione], for which the EC50 is greater than 100 nM in the experiment on SK-MEL-5 cells (Homo sapiens) and greater than 100 nM in the experiment with MV-4-11 cells (Homo sapiens, MV4-11, 72 h).

On to `O=C1CCC(Nc2ccc(C3CCN(C4CCN(c5ccc6c(c5)n(C5CCCC5)c5nc(=O)c7c(O)cccc7n65)CC4)CC3)c(F)c2)C(=O)N1` (stereo not drawn) [Compound 12, 3-((4-(1′-(7-cyclopentyl-4-hydroxy-5-oxo-5,7-dihydrobenzo[4,5]imidazo[1,2-a]quinazolin-9-yl)-[1,4′-bipiperidin]-4-yl)-3-fluorophenyl)amino)piperidine-2,6-dione-HCl salt], for which the EC50 in the experiment with SK-MEL-5 cells (Homo sapiens) was greater than 100 nM; in the experiment with MV-4-11 cells (Homo sapiens, MV4-11, 72 h), greater than 100 nM.

For `O=C1CCC(Nc2ccc(C3CCN(C4CCN(c5ccc6c(c5)[nH]c5nc(=O)c7c(Br)cccc7n56)CC4)CC3)c(F)c2)C(=O)N1` (stereo not drawn) [Compound 34, 3-((4-(1′-(4-bromo-5-oxo-5,7-dihydrobenzo[4,5]imidazo[1,2-a]quinazolin-9-yl)-[1,4′-bipiperidin]-4-yl)-3-fluorophenyl)amino)piperidine-2,6-dione], the EC50 was greater than 100 nM in the experiment with SK-MEL-5 cells (Homo sapiens) and greater than 100 nM in the experiment with MV-4-11 cells (Homo sapiens, MV4-11, 72 h).

Consider `Cn1c2cc(-c3ccc(N4CCN(c5ccc(NC6CCC(=O)NC6=O)cc5F)CC4)cc3)ccc2n2c3cccc(N)c3c(=O)nc12` (stereo not drawn) [Compound 49, 3-((4-(4-(4-(4-amino-7-methyl-5-oxo-5,7-dihydrobenzo[4,5]imidazo[1,2-a]quinazolin-9-yl)phenyl)piperazin-1-yl)-3-fluorophenyl)amino)piperidine-2,6-dione], for which the concentration for a half-maximal effect (EC50) was greater than 100 nM with SK-MEL-5 cells (Homo sapiens) and greater than 100 nM in the experiment on MV-4-11 cells (Homo sapiens, MV4-11, 72 h).

Turning to `O=C1CCC(c2ccc(C3CCN(C4CCN(c5ccc6c(c5)n(C5CCCC5)c5nc(=O)c7ncccc7n65)CC4)CC3)cc2)C(=O)N1` (stereo not drawn) [Compound 24, 3-(4-(1′-(7-cyclopentyl-5-oxo-5,7-dihydrobenzo[4,5]imidazo[1,2-a]pyrido[2,3-e]pyrimidin-9-yl)-[1,4′-bipiperidin]-4-yl)phenyl)piperidine-2,6-dione], the 50% effective concentration (EC50) is greater than 100 nM in the experiment with SK-MEL-5 cells (Homo sapiens) and greater than 100 nM with MV-4-11 cells (Homo sapiens, MV4-11, 72 h).

On to `CC(C)n1c2cc(N3CCC(N4CCC(c5ccc6c(c5)CN(C5CCC(=O)NC5=O)C6=O)CC4)CC3)ccc2n2c3cccc(Cl)c3c(=O)nc12` (stereo not drawn) [Compound 28, 3-(5-(1′-(4-chloro-7-isopropyl-5-oxo-5,7-dihydrobenzo[4,5]imidazo[1,2-a]quinazolin-9-yl)-[1,4′-bipiperidin]-4-yl)-1-oxoisoindolin-2-yl)piperidine-2,6-dione-HCl salt], for which the EC50 is less than 10 nM with SK-MEL-5 cells (Homo sapiens) and less than 10 nM with MV-4-11 cells (Homo sapiens, MV4-11, 72 h).

In the case of `O=C1CCC(c2ccc(C3CCN(C4CCN(c5ccc6c(c5)n(C5CCCC5)c5nc(=O)c7c(C(F)(F)F)cccc7n65)CC4)CC3)cc2)C(=O)N1` (stereo not drawn) [Compound 13, 3-(4-(1′-(7-cyclopentyl-5-oxo-4-(trifluoromethyl)-5,7-dihydrobenzo[4,5]imidazo[1,2-a]quinazolin-9-yl)-[1,4′-bipiperidin]-4-yl)phenyl)piperidine-2,6-dione], the EC50 in the experiment on SK-MEL-5 cells (Homo sapiens) is greater than 100 nM; in the experiment with MV-4-11 cells (Homo sapiens, MV4-11, 72 h), greater than 100 nM.

Consider `Cn1c2cc(N3CCC(N4CCN(c5ccc6c(c5)CN(C5CCC(=O)NC5=O)C6=O)CC4)CC3)ccc2n2c3cccc(N)c3c(=O)nc12` (stereo not drawn) [Compound 42, 3-(5-(4-(1-(4-amino-7-methyl-5-oxo-5,7-dihydrobenzo[4,5]imidazo[1,2-a]quinazolin-9-yl)piperidin-4-yl)piperazin-1-yl)-1-oxoisoindolin-2-yl)piperidine-2,6-dione], for which the 50% effective concentration (EC50) is greater than 100 nM with SK-MEL-5 cells (Homo sapiens) and greater than 100 nM in the experiment on MV-4-11 cells (Homo sapiens, MV4-11, 72 h).

Take `CC(C)n1c2cc(N3CCC(N4CCN(c5ccc(NC6CCC(=O)NC6=O)cc5F)CC4)CC3)ccc2n2c3cccc(Cl)c3c(=O)nc12` (stereo not drawn) [Compound 47, 3-((4-(4-(1-(4-chloro-7-isopropyl-5-oxo-5,7-dihydrobenzo[4,5]imidazo[1,2-a]quinazolin-9-yl)piperidin-4-yl)piperazin-1-yl)-3-fluorophenyl)amino)piperidine-2,6-dione]: the EC50 in the experiment on SK-MEL-5 cells (Homo sapiens) was less than 10 nM; in the experiment with MV-4-11 cells (Homo sapiens, MV4-11, 72 h) it was greater than 100 nM.

With `Cn1nc(N2CCC(=O)NC2=O)c2cc(F)c(N3CCN(C4CCN(c5ccc6c(c5)n(C)c5nc(=O)c7c(N)cccc7n65)CC4)CC3)cc21` [Compound 41, 1-(6-(4-(1-(4-amino-7-methyl-5-oxo-5,7-dihydrobenzo[4,5]imidazo[1,2-a]quinazolin-9-yl)piperidin-4-yl)piperazin-1-yl)-5-fluoro-1-methyl-1H-indazol-3-yl)dihydropyrimidine-2,4(1H,3H)-dione], the EC50 was greater than 100 nM with SK-MEL-5 cells (Homo sapiens) and greater than 100 nM in the experiment with MV-4-11 cells (Homo sapiens, MV4-11, 72 h).

As for `Cn1c2cc(N3CCC(N4CCC(c5ccc6c(c5)CN(C5CCC(=O)NC5=O)C6=O)CC4)CC3)ccc2n2c3cccc(Cl)c3c(=O)nc12` (stereo not drawn) [Compound 27, 3-(5-(1′-(4-chloro-7-methyl-5-oxo-5,7-dihydrobenzo[4,5]imidazo[1,2-a]quinazolin-9-yl)-[1,4′-bipiperidin]-4-yl)-1-oxoisoindolin-2-yl)piperidine-2,6-dione], the EC50 is less than 10 nM in the experiment with SK-MEL-5 cells (Homo sapiens) and less than 10 nM in the experiment on MV-4-11 cells (Homo sapiens, MV4-11, 72 h).

Regarding `Nc1cccc2c1c(=O)nc1n(C3CC3)c3cc(N4CCC(N5CCN(c6ccc(NC7CCC(=O)NC7=O)cc6F)CC5)CC4)ccc3n21` (stereo not drawn) [Compound 37, 3-((4-(4-(1-(4-amino-7-cyclopropyl-5-oxo-5,7-dihydrobenzo[4,5]imidazo[1,2-a]quinazolin-9-yl)piperidin-4-yl)piperazin-1-yl)-3-fluorophenyl)amino)piperidine-2,6-dione], the EC50 with SK-MEL-5 cells (Homo sapiens) was greater than 100 nM; with MV-4-11 cells (Homo sapiens, MV4-11, 72 h) it was greater than 100 nM.

On to `Cn1c2cc(N3CCC(N4CCN(c5ccc(NC6CCC(=O)NC6=O)cc5F)CC4)CC3)ccc2n2c3cccc(Cl)c3c(=O)nc12` (stereo not drawn) [Compound 46, 3-((4-(4-(1-(4-chloro-7-methyl-5-oxo-5,7-dihydrobenzo[4,5]imidazo[1,2-a]quinazolin-9-yl)piperidin-4-yl)piperazin-1-yl)-3-fluorophenyl)amino)piperidine-2,6-dione], for which the concentration for a half-maximal effect (EC50) in the experiment with SK-MEL-5 cells (Homo sapiens) is less than 10 nM; with MV-4-11 cells (Homo sapiens, MV4-11, 72 h) it was greater than 100 nM.

Regarding `O=C1CCC(N2Cc3cc(C4CCN(C5CCN(c6ccc7c(c6)n(C6CCCC6)c6nc(=O)c8ccccc8n76)CC5)CC4)ccc3C2=O)C(=O)N1` (stereo not drawn) [Compound 10, 3-(5-(1′-(7-cyclopenty1-5-oxo-5,7-dihydrobenzo[4,5]imidazo[1,2-a]quinazolin-9-yl)-[1,4′-bipiperidin]-4-yl)-1-oxoisoindolin-2-yl)piperidine-2,6-dione], the half-maximal effective concentration (EC50) with SK-MEL-5 cells (Homo sapiens) was greater than 100 nM; in the experiment on MV-4-11 cells (Homo sapiens, MV4-11, 72 h) it was greater than 100 nM.

Take `CC(C)n1c2cc(-c3ccc(N4CCN(c5ccc(NC6CCC(=O)NC6=O)cc5F)CC4)cc3)ccc2n2c3cccc(Cl)c3c(=O)nc12` (stereo not drawn) [Compound 50, 3-((4-(4-(4-(4-chloro-7-isopropyl-5-oxo-5,7-dihydrobenzo[4,5]imidazo[1,2-a]quinazolin-9-yl)phenyl)piperazin-1-yl)-3-fluorophenyl)amino)piperidine-2,6-dione.TFA]: the 50% effective concentration (EC50) is greater than 100 nM in the experiment with SK-MEL-5 cells (Homo sapiens) and greater than 100 nM in the experiment with MV-4-11 cells (Homo sapiens, MV4-11, 72 h).

On to `Nc1cccc2c1c(=O)nc1[nH]c3cc(N4CCC(N5CCC(c6ccc(C7CCC(=O)NC7=O)cc6)CC5)CC4)ccc3n12` (stereo not drawn) [Compound 31, 3-(4-(1′-(4-amino-5-oxo-5,7-dihydrobenzo[4,5]imidazo[1,2-a]quinazolin-9-yl)-[1,4′-bipiperidin]-4-yl)phenyl)piperidine-2,6-dione-TFA salt], for which the 50% effective concentration (EC50) in the experiment on SK-MEL-5 cells (Homo sapiens) was greater than 100 nM; with MV-4-11 cells (Homo sapiens, MV4-11, 72 h) it was greater than 100 nM.

In the case of `O=C1CCC(Nc2ccc(C3CCN(C4CCN(c5ccc6c(c5)n(C5CCCC5)c5nc(=O)c7c(Cl)cccc7n65)CC4)CC3)c(F)c2)C(=O)N1` (stereo not drawn) [Compound 38, 3-((4-(1′-(4-chloro-7-cyclopentyl-5-oxo-5,7-dihydrobenzo[4,5]imidazo[1,2-a]quinazolin-9-yl)-[1,4′-bipiperidin]-4-yl)-3-fluorophenyl)amino)piperidine-2,6-dione], the 50% effective concentration (EC50) in the experiment on SK-MEL-5 cells and in the experiment on MV-4-11 cells was less than 10 nM throughout.
